Laboratory results reported in BindingDB's records for doi:10.1021/acs.jmedchem.5b01516 (Centre Hospitalier Universitaire Vaudois (Chuv), 2016).

Target: Presenilin-1 (Homo sapiens, UniProt P49768)
Test: Inhibition of gamma secretase (unknown origin)

SMILES: CC(C)[C@H](O)C(=O)N[C@@H](C)C(=O)NC1C(=O)N(C)CCc2ccccc21 (stereo partly drawn) [(2S)-2-hydroxy-3-methyl-N-[(1S)-1-{[(1S)-3-methyl-2-oxo-2,3,4,5-tetrahydro-1H-3-benzazepin-1-yl]carbamoyl}ethyl]butanamide]
- IC50: 11 nM
